In ChEMBL document CHEMBL3885861, “Open TG-GATES”:

Organism: Rattus norvegicus
Assay: Open TG-GATES - Regimen: Daily Repeat
Assay type: toxicity, organism-based, Sprague-Dawley
Parameters: regimen Daily Repeat, gender Male, age 6 weeks
Details: in vivo, po, 0 mg/kg, route gavage, dose level Control; for APTT / Bas / Eos / Fbg / Hb / Ht / Lym / MCH / MCHC / MCV / Mono / Neu / PT / Plat / RBC / Ret / WBC: tissue Blood; for KIDNEY_L / KIDNEY_R / KIDNEY_TOTAL: tissue Kidney; for LIVER: tissue Liver; for A/G / ALP / ALT / AST / BUN / CRE / Ca / Cl / DBIL / GLC / IP / K / LDH / Na / PL / RALB / TBIL / TC / TG / TP / gamma-GTP: tissue Plasma

CC(=O)[C@@]1(O)CC[C@H]2[C@@H]3C=C(Cl)C4=CC(=O)CC[C@]4(C)[C@H]3CC[C@@]21C [CHLORMADINONE]
TERMINAL_BW (72 h, time 3 day): 240.6 g
APTT (72 h, time 3 day): 23.6 s
Bas (72 h, time 3 day): 0%
Eos (72 h, time 3 day): 1%
Fbg (72 h, time 3 day): 295 mg/dL
Hb (72 h, time 3 day): 13.3 g/dL
Ht (72 h, time 3 day): 40.9%
Lym (72 h, time 3 day): 77.6%
MCH (72 h, time 3 day): 20.3 pg
MCHC (72 h, time 3 day): 32.6%
MCV (72 h, time 3 day): 62.4 fL
Mono (72 h, time 3 day): 2.6%
Neu (72 h, time 3 day): 18.4%
PT (72 h, time 3 day): 15.6 s
Plat (72 h, time 3 day): 116.7 x10_4/uL
RBC (72 h, time 3 day): 656 x10_4/ul
Ret (72 h, time 3 day): 6.4%
WBC (72 h, time 3 day): 122.2 x10_2/uL
KIDNEY_L (72 h, time 3 day): 1 g
KIDNEY_R (72 h, time 3 day): 1 g
KIDNEY_TOTAL (72 h, time 3 day): 2 g
LIVER (72 h, time 3 day): 10.8 g
A/G (72 h, time 3 day): 1.2
ALP (72 h, time 3 day): 1828 IU/L
ALT (72 h, time 3 day): 43.8 IU/L
AST (72 h, time 3 day): 82 IU/L
BUN (72 h, time 3 day): 18.8 mg/dL
CRE (72 h, time 3 day): 0.2 mg/dL
Ca (72 h, time 3 day): 10.8 mg/dL
Cl (72 h, time 3 day): 105.8 meq/L
DBIL (72 h, time 3 day): 0 mg/dL
GLC (72 h, time 3 day): 190.6 mg/dL
IP (72 h, time 3 day): 7 mg/dL
K (72 h, time 3 day): 4.3 meq/L
LDH (72 h, time 3 day): 300.6 IU/L
Na (72 h, time 3 day): 141.6 meq/L
PL (72 h, time 3 day): 151.2 mg/dL
RALB (72 h, time 3 day): 3 g/dL
TBIL (72 h, time 3 day): 0.008 mg/dL
TC (72 h, time 3 day): 72.2 mg/dL
TG (72 h, time 3 day): 114.8 mg/dL
TP (72 h, time 3 day): 5.4 g/dL
gamma-GTP (72 h, time 3 day): 1.4 IU/L
TERMINAL_BW ([…], time 7 day): 267.1 g
TERMINAL_BW ([…], time 14 day): 325.5 g
TERMINAL_BW ([…], time 28 day): 410.9 g
APTT ([…], time 7 day): 24.1 s
Bas ([…], time 7 day): 0%
Eos ([…], time 7 day): 0.8%
Fbg ([…], time 7 day): 337 mg/dL
Hb ([…], time 7 day): 13.8 g/dL
Ht ([…], time 7 day): 41.5%
Lym ([…], time 7 day): 80.8%
MCH ([…], time 7 day): 20.3 pg
MCHC ([…], time 7 day): 33.1%
MCV ([…], time 7 day): 61.1 fL
Mono ([…], time 7 day): 2.2%
Neu ([…], time 7 day): 15.2%
PT ([…], time 7 day): 15.6 s
Plat ([…], time 7 day): 112.3 x10_4/uL
RBC ([…], time 7 day): 680 x10_4/ul
Ret ([…], time 7 day): 5.6%
WBC ([…], time 7 day): 129.9 x10_2/uL
APTT ([…], time 14 day): 23.6 s
Bas ([…], time 14 day): 0%
Eos ([…], time 14 day): 0.8%
Fbg ([…], time 14 day): 320.6 mg/dL
Hb ([…], time 14 day): 14 g/dL
Ht ([…], time 14 day): 41.9%
Lym ([…], time 14 day): 80.8%
MCH ([…], time 14 day): 19.9 pg
MCHC ([…], time 14 day): 33.5%
MCV ([…], time 14 day): 59.5 fL
Mono ([…], time 14 day): 2.2%
Neu ([…], time 14 day): 15.2%
PT ([…], time 14 day): 15.4 s
Plat ([…], time 14 day): 100.4 x10_4/uL
RBC ([…], time 14 day): 704 x10_4/ul
Ret ([…], time 14 day): 5.2%
WBC ([…], time 14 day): 126.8 x10_2/uL
APTT ([…], time 28 day): 24.8 s
Bas ([…], time 28 day): 0%
Eos ([…], time 28 day): 0.8%
Fbg ([…], time 28 day): 325 mg/dL
Hb ([…], time 28 day): 15.2 g/dL
Ht ([…], time 28 day): 44%
Lym ([…], time 28 day): 82.2%
MCH ([…], time 28 day): 19.5 pg
MCHC ([…], time 28 day): 34.4%
MCV ([…], time 28 day): 56.5 fL
Mono ([…], time 28 day): 2%
Neu ([…], time 28 day): 14.2%
PT ([…], time 28 day): 15.5 s
Plat ([…], time 28 day): 100.5 x10_4/uL
RBC ([…], time 28 day): 779 x10_4/ul
Ret ([…], time 28 day): 3%
WBC ([…], time 28 day): 118.3 x10_2/uL
KIDNEY_L ([…], time 7 day): 1.1 g
KIDNEY_R ([…], time 7 day): 1.1 g
KIDNEY_TOTAL ([…], time 7 day): 2.2 g
KIDNEY_L ([…], time 14 day): 1.2 g
KIDNEY_R ([…], time 14 day): 1.2 g
KIDNEY_TOTAL ([…], time 14 day): 2.5 g
KIDNEY_L ([…], time 28 day): 1.4 g
KIDNEY_R ([…], time 28 day): 1.4 g
KIDNEY_TOTAL ([…], time 28 day): 2.9 g
LIVER ([…], time 7 day): 12.3 g
LIVER ([…], time 14 day): 14.3 g
LIVER ([…], time 28 day): 17.2 g
A/G ([…], time 7 day): 1.2
ALP ([…], time 7 day): 1354.8 IU/L
ALT ([…], time 7 day): 39.4 IU/L
AST ([…], time 7 day): 67.8 IU/L
BUN ([…], time 7 day): 18.8 mg/dL
CRE ([…], time 7 day): 0.2 mg/dL
Ca ([…], time 7 day): 10.8 mg/dL
Cl ([…], time 7 day): 105.8 meq/L
DBIL ([…], time 7 day): 0 mg/dL
GLC ([…], time 7 day): 200.8 mg/dL
IP ([…], time 7 day): 7 mg/dL
K ([…], time 7 day): 4.2 meq/L
LDH ([…], time 7 day): 158.4 IU/L
Na ([…], time 7 day): 140.6 meq/L
PL ([…], time 7 day): 147.2 mg/dL
RALB ([…], time 7 day): 3.1 g/dL
TBIL ([…], time 7 day): 0.01 mg/dL
TC ([…], time 7 day): 76 mg/dL
TG ([…], time 7 day): 114.8 mg/dL
TP ([…], time 7 day): 5.7 g/dL
gamma-GTP ([…], time 7 day): 2.2 IU/L
A/G ([…], time 14 day): 1.1
ALP ([…], time 14 day): 1391 IU/L
ALT ([…], time 14 day): 37.4 IU/L
AST ([…], time 14 day): 64.6 IU/L
BUN ([…], time 14 day): 17.6 mg/dL
CRE ([…], time 14 day): 0.2 mg/dL
Ca ([…], time 14 day): 10.6 mg/dL
Cl ([…], time 14 day): 107 meq/L
DBIL ([…], time 14 day): 0 mg/dL
GLC ([…], time 14 day): 188 mg/dL
IP ([…], time 14 day): 6.6 mg/dL
K ([…], time 14 day): 4 meq/L
LDH ([…], time 14 day): 156.6 IU/L
Na ([…], time 14 day): 142.2 meq/L
PL ([…], time 14 day): 137.4 mg/dL
RALB ([…], time 14 day): 3 g/dL
TBIL ([…], time 14 day): 0.016 mg/dL
TC ([…], time 14 day): 69.6 mg/dL
TG ([…], time 14 day): 112.2 mg/dL
TP ([…], time 14 day): 5.7 g/dL
gamma-GTP ([…], time 14 day): 2.2 IU/L
A/G ([…], time 28 day): 1
ALP ([…], time 28 day): 988 IU/L
ALT ([…], time 28 day): 44.4 IU/L
AST ([…], time 28 day): 73.4 IU/L
BUN ([…], time 28 day): 21.6 mg/dL
CRE ([…], time 28 day): 0.2 mg/dL
Ca ([…], time 28 day): 10.6 mg/dL
Cl ([…], time 28 day): 103.8 meq/L
DBIL ([…], time 28 day): 0 mg/dL
GLC ([…], time 28 day): 201.4 mg/dL
IP ([…], time 28 day): 6.6 mg/dL
K ([…], time 28 day): 4.4 meq/L
LDH ([…], time 28 day): 217.4 IU/L
Na ([…], time 28 day): 141.2 meq/L
PL ([…], time 28 day): 131 mg/dL
RALB ([…], time 28 day): 3.1 g/dL
TBIL ([…], time 28 day): 0.01 mg/dL
TC ([…], time 28 day): 63.2 mg/dL
TG ([…], time 28 day): 112.4 mg/dL
TP ([…], time 28 day): 6.3 g/dL
gamma-GTP ([…], time 28 day): 2.2 IU/L
